Several values for one entry are separate records, joined by “and”; a condition that tells them apart may be missing. Identical values can stand only once.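 Assay format: 96-well plates, 48-hour exposure. GI50 marks 50% less growth. The concentration for full growth arrest is given as TGI.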

One assay has as its system NCI-H460 lung. The assay is described as follows: NCI-60 cell line screen, 48 h.
For `Cc1csc(Nc2nc(-c3cccc(Br)c3)nc(C(Cl)(Cl)Cl)n2)n1`, the GI50 was 1.16 µM and the TGI came to 3.53 µM.

Compound `COc1c(OC)c(OC)c(C(=O)/C=C/c2ccccc2)c(OC)c1OC` displayed a TGI of 21.9 µM.

As for `NS(=O)(=O)c1ccc(N(/C=C/C(=O)C(F)(F)F)CC(=O)c2ccc(Cl)cc2)cc1`, the GI50 was 31.8 µM and the TGI is 89 µM.

Consider `CS(=O)(=O)CCCn1c(=O)c(Oc2ccc(F)cc2F)cc2cnc(NC3CCOCC3)nc21`, for which the GI50 was > 25 µM and the TGI is > 25 µM.

Turning to `N#C/C=C(\c1ccc([N+](=O)[O-])cc1)n1nnc2cc(Cl)c(Cl)cc21`, the GI50 is 2.36 µM and the TGI was determined as 6.98 µM.

In the case of `CCN(CC)CCOc1ccc(/C=C2\CC3C4CC=C5C[C@@H](O)CC[C@]5(C)C4CC[C@]3(C)C2=O)cc1OC` (stereo partly drawn), the GI50 is 5.42 µM and the TGI is > 53 µM.

`O=C(CC(O)(C(F)(F)F)C(F)(F)F)c1cc(CC(=O)C(O)(C(F)(F)F)C(F)(F)F)cc(CC(=O)C(O)(C(F)(F)F)C(F)(F)F)c1` yielded a TGI of 2.25 µM.

For `O=c1c2ccccc2sc2cccc(NCCCN3CCN(CCCNc4cccc5sc6ccccc6c(=O)c45)CC3)c12`, the TGI is > 100 µM.

As for `Cc1cn2c(/C=C3\C(=O)Nc4ccc(O)cc43)c(-c3ccc(Cl)cc3)nc2s1`, the GI50 was 15.5 µM and the TGI amounted to 45.3 µM.

On to `CC1(C)OCCn2c1nc1c(N3CCOCC3)nc(-c3cnc(N)nc3)nc12`, for which the GI50 is 0.187 µM and the TGI was > 100 µM.

Regarding `O=C(c1c(F)ccc(NS(=O)(=O)N2CC[C@@H](F)C2)c1F)c1c[nH]c2ncc(-c3cnc(C4CC4)nc3)cc12`, the GI50 was 4.25 µM and 4.67 µM; the TGI is > 10 µM and 26.3 µM.

Take `COc1cc(-c2nn(-c3cccc(NC(=O)Nc4ccc(Cl)c(Cl)c4)c3)cc2-c2ccncc2)ccc1Cl`: the GI50 was 1.11 µM and the TGI is > 50 µM.

As to `Nc1nc(N)c(N=Nc2ccc([As](=O)(O)O)cc2)c(=O)[nH]1`, the TGI is > 100 µM.

Turning to `CCOC(=O)C(=Cc1cccc(Cl)c1)C(=O)OCC`, the GI50 is 3.71 µM and the TGI was determined as 12.6 µM.

As for `C=CC(=O)N1CCC(C2CCNc3c(C(N)=O)c(-c4ccc(Oc5ccccc5)cc4)nn32)CC1` (stereo not drawn), the GI50 is 31.4 µM and the TGI was > 100 µM.

As for `CCCCCCNC(=O)c1nc(-c2ccccc2)oc1Cc1ccc(OP(=O)(O)O)cc1`, the GI50 was 20.2 µM and the TGI was determined as 43 µM.

Turning to `Cc1ccc(/C=C/c2c(C(=O)/C=C/c3ccc(C(F)(F)F)cc3)c(C)nc3ccccc23)cc1`, the GI50 is 1.53 µM and the TGI was 3.22 µM.

As for `CCCn1c(N)c(C(=O)N/N=C(/C)c2cc3cccc(OC)c3o2)sc1=S`, the GI50 is 17.7 µM and the TGI was > 100 µM.

Take `C=CCc1cccc(/C=N/NC(=O)CN2CCN(Cc3ccccc3)CC2)c1O`: the GI50 was 1.41 µM and the TGI turned out to be 11.6 µM.

The test system of another assay is NCI-H23 lung. In words: NCI-60 cell line screen, 48 h.
With `Cc1csc(Nc2nc(-c3cccc(Br)c3)nc(C(Cl)(Cl)Cl)n2)n1`, the GI50 was > 100 µM and the TGI was > 100 µM.

The compound `COc1c(OC)c(OC)c(C(=O)/C=C/c2ccccc2)c(OC)c1OC` registered a TGI of 26.8 µM.

Take `NS(=O)(=O)c1ccc(N(/C=C/C(=O)C(F)(F)F)CC(=O)c2ccc(Cl)cc2)cc1`: the GI50 was 37.5 µM and the TGI was > 100 µM.

Turning to `CS(=O)(=O)CCCn1c(=O)c(Oc2ccc(F)cc2F)cc2cnc(NC3CCOCC3)nc21`, the GI50 was > 25 µM and the TGI was > 25 µM.

Regarding `N#C/C=C(\c1ccc([N+](=O)[O-])cc1)n1nnc2cc(Cl)c(Cl)cc21`, the GI50 was 2.28 µM and the TGI was found to be 6.68 µM.

Consider `CCN(CC)CCOc1ccc(/C=C2\CC3C4CC=C5C[C@@H](O)CC[C@]5(C)C4CC[C@]3(C)C2=O)cc1OC` (stereo partly drawn), for which the GI50 was 7.71 µM and the TGI is > 60.6 µM.

Turning to `O=C(CC(O)(C(F)(F)F)C(F)(F)F)c1cc(CC(=O)C(O)(C(F)(F)F)C(F)(F)F)cc(CC(=O)C(O)(C(F)(F)F)C(F)(F)F)c1`, the TGI was 4.06 µM.

On to `O=c1c2ccccc2sc2cccc(NCCCN3CCN(CCCNc4cccc5sc6ccccc6c(=O)c45)CC3)c12`, for which the TGI was > 100 µM.

As for `Cc1cn2c(/C=C3\C(=O)Nc4ccc(O)cc43)c(-c3ccc(Cl)cc3)nc2s1`, the GI50 is 15.8 µM and the TGI came out at 35.8 µM.

For `CC1(C)OCCn2c1nc1c(N3CCOCC3)nc(-c3cnc(N)nc3)nc12`, the GI50 is 0.484 µM and the TGI is > 100 µM.

Turning to `O=C(c1c(F)ccc(NS(=O)(=O)N2CC[C@@H](F)C2)c1F)c1c[nH]c2ncc(-c3cnc(C4CC4)nc3)cc12`, the GI50 is > 10 µM and 10.2 µM; the TGI is > 10 µM and 41.1 µM.

Take `COc1cc(-c2nn(-c3cccc(NC(=O)Nc4ccc(Cl)c(Cl)c4)c3)cc2-c2ccncc2)ccc1Cl`: the GI50 was 1.41 µM and the TGI turned out to be 5.19 µM.

For the compound `Nc1nc(N)c(N=Nc2ccc([As](=O)(O)O)cc2)c(=O)[nH]1`, the TGI is > 100 µM.

On to `CCOC(=O)C(=Cc1cccc(Cl)c1)C(=O)OCC`, for which the GI50 was 2.32 µM and the TGI is 6.45 µM.

On to `C=CC(=O)N1CCC(C2CCNc3c(C(N)=O)c(-c4ccc(Oc5ccccc5)cc4)nn32)CC1` (stereo not drawn), for which the GI50 is 16.5 µM and the TGI came to 39.9 µM.

Consider `CCCCCCNC(=O)c1nc(-c2ccccc2)oc1Cc1ccc(OP(=O)(O)O)cc1`, for which the GI50 was 16.7 µM and the TGI stood at 35.4 µM.

On to `Cc1ccc(/C=C/c2c(C(=O)/C=C/c3ccc(C(F)(F)F)cc3)c(C)nc3ccccc23)cc1`, for which the GI50 is 1.29 µM and the TGI is 3.13 µM.

`CCCn1c(N)c(C(=O)N/N=C(/C)c2cc3cccc(OC)c3o2)sc1=S`: the GI50 was 41.1 µM and the TGI is > 100 µM.

As to `C=CCc1cccc(/C=N/NC(=O)CN2CCN(Cc3ccccc3)CC2)c1O`, the GI50 was 3.05 µM and the TGI came to 16.5 µM.

The values are drawn from PubChem BioAssay (NCI).
